A word on the IC50: it is the concentration needed to halve the response being measured.

One assay concerns the target human IDO1 (Homo sapiens (Human), UniProt P14902). As to the kind of experiment: Inhibition activity on human IDO1 (enzyme assay, absorbance at 480 nm). It counts as biochemical. Particulars: read-out: IC50 for inhibiting the activity of human IDO1. The method, then: Assay for Determining the Inhibition Activity of the Present Compounds on Human IDO1
Human IDO1 activity was tested in vitro by the following method.
This method is used to determine the inhibition effect of the compounds of the present invention on the activity of human IDO1.
The human IDO1 gene was transferred to Pet30a plasmid by gene cloning, and then transferred to competent Escherichia coli Rosseta. The IDO1 gene was scaled-up by culturing in liquid LB (Luria-Bertani) medium [which was prepared per liter according to “Molecular Cloning A Laboratory Manual” (J. Sambrook, D. W. Russell)]). The bacteria were collected and lysed by ultrasonic waves. The purified IDO1 was obtained by eluting from a column.
For testing, 24 μL of enzyme (IDO1) was diluted 100 times with 50 mM KPB to 2400 μL. The concentration of the enzyme solution was 2.6 ng/μL. A 96 well reaction plate (AXYGEN, PCR-96-FLT-C) (hereinafter referred to as the “reaction plate”) was added with the enzyme solution at 24 μL/well. The blank well was added with 24 μL of KPB [Preparation of KPB buffer (50 mM): 6.805 g of KH2PO4 was weighed using an analytical balance, and placed into a 1000 mL beaker, deionized water was added with a measuring cylinder to 900 ml, the pH was adjusted to 6.5 by 1M KOH, then the mixture was introduced into a 1 L measuring cylinder, and water was added to 1 L. It was stored at 4° C.]. Then, 1 μL of a compound or DMSO was added into the corresponding wells in the reaction plate. Preparation of solution A: 200 μL of 500 mM L-sodium ascorbate were added with 1050 μL of KPB, then the mixture was mixed uniformly for 3 seconds at the maximum speed in a turbine mixer. Solution B: 100 μL of 10 mM tryptophan were added with 100 μL of 100,000 unit/mL catalase, 5 μL of 10 mM methylene blue, and 1050 μL of KPB successively, then the mixture was mixed uniformly for 3 seconds at the maximum speed in a turbine mixer. Then, 1200 μL of solution A and 1200 μL of solution B were taken and mixed uniformly for 3 seconds at the maximum speed in a turbine mixer. The mixture was added to the reaction plate at 24 μL/well. The reaction plate was placed in a plate centrifuge and centrifuged for 15 seconds at the maximum speed, so that the reaction liquids converged to the bottom. The reaction mixture was mixed uniformly for 30 seconds on a shaker, and incubated for 1 hour at 37° C. in a constant temperature incubator. In the reaction plate, 30% (W/V) trichloroacetic acid was added at 10 μL/well, then the mixture was incubated for 15 minutes at 65° C. in an incubator. The reaction plate was centrifuged in a centrifuge for 5 minutes at 4700 RPM at room temperature. […] Then, 2% (W/V) 4-(dimethylamino)benzaldehyde/glacial acetic acid solution was added at 40 μL/well, and the mixture was mixed uniformly for 1 minute on a shaker at the maximum speed. After incubation for 2 minutes at room temperature, the absorbance at 480 nm was read on a Synergy HT (BIOTEK) reader.
The inhibition activity of the compounds of the present invention on human IDO1 was tested by the assay described above.

The next assay deals with IDO in HeLa cells (Homo sapiens (Human), UniProt P14902). Nature of the assay: Inhibition activity on IDO in HeLa cells (INF-γ induced). Particulars: HeLa cells, INF-γ and tryptophan, 48 hours; read-out: IC50 for inhibiting the activity of IDO in HeLa cells. The assay is classed as cell-based. How it is done: Assay for Determining the Inhibition Activity of the Present Compounds on IDO in HeLa Cells
IDO activity in HeLa cells was tested in vitro by the following method.
This method is used to determine the inhibition effect of the compounds of the present invention on the activity of IDO in HeLa cells. (Note: indoleamine 2,3-dioxygenase (IDO) is expressed in the HeLa cell line and induced by interferon gamma (INF-γ)).
The supernatant was removed, serum-free DMEM high glucose medium was added at 90 μL/well, then the compounds contained in the culture medium with INF-γ and tryptophan were added at 10 μL/well (the final concentrations: 10000, 1000, 100, 10, 1, 0.1 nM). […] Then, 80 μL of the supernate was transferred from the 96-well cell culture plate to a 96 well round-bottomed plate, then 30% (W/V) trichloroacetic acid was added at 16 μL/well, then the mixture was incubated for 25 minutes at 65° C. in an incubator. The reaction plate was centrifuged in a centrifuge for 5 minutes at 4700 RPM. Then, 50 μL of the supernatant was transferred from the reaction plate to a 96-well flat-bottomed transparent plate by a multi-channel pipette. Then, 2% (W/V) 4-(dimethylamino)benzaldehyde/glacial acetic acid solution was added at 50 μL/well, then the mixture was mixed uniformly for 1 minute on a shaker. After incubation for 2 minutes at room temperature, the absorbance at 480 nm was read on a Synergy HT Reader.
The inhibition activity of the compounds of the present invention on IDO in HeLa cells was tested by the assay described above.

[1] abbreviates: purified recombinant human IDO1, 1 hour at 37° C.

The structures appear in SMILES notation. Structures can show the parent of a compound that is named as a salt. Where two headings read alike, the source gives them in different places.

human IDO1, sequence (P14902 whole entry): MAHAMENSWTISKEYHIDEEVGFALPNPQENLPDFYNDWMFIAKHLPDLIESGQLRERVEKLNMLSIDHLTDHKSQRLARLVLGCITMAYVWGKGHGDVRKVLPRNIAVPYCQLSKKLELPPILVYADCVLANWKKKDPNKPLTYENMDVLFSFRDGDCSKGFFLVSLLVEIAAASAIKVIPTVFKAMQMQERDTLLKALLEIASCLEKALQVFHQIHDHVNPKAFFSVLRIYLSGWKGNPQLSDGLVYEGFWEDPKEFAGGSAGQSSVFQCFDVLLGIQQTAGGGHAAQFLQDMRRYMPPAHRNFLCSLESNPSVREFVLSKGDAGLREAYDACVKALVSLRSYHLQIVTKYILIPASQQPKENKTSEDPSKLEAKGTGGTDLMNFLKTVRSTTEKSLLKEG
IDO in HeLa cells, sequence (P14902 whole entry): as above

`COc1ccc(N2CCC(C3c4c(F)cccc4-c4cncn43)CC2)cc1` (stereo not shown) [Example 4, 6-fluoro-5-(1-(4-methoxyphenyl)piperidin-4-yl)-5H-imidazo[5,1-a]isoindole trifluoroacetate]: the IC50 on human IDO1 (setting [1]) is 96.2 nM; on IDO in HeLa cells it was 188 nM. On the same counts, the results for `Cn1cc(-c2cccc(N3CCC(C4c5c(F)cccc5-c5cncn54)CC3)c2)cn1` (stereo not shown) [Example 8, 6-fluoro-5-(1-(3-(1-methyl-1H-pyrazol-4-yl)phenyl)piperidin-4-yl)-5H-imidazo[5,1-a]isoindole] are 78.8 nM and 253 nM.

In the case of `O=C(NC1CCOCC1)c1ccc(N2CCC(C3c4c(F)cccc4-c4cncn43)CC2)cc1` (stereo not shown) [Example 11, 4-(4-(6-fluoro-5H-imidazo[5,1-a]isoindol-5-yl)piperidin-1-yl)-N-(tetrahydro-2H-pyran-4-yl)benzamide trifluoroacetate], the results for the IC50 on human IDO1 (setting [1]) and at IDO in HeLa cells were 73.2 nM and 477 nM, respectively. On to `CC(=O)Nc1cccc(N2CCC(C3c4c(F)cccc4-c4cncn43)CC2)c1` (stereo not shown) [Example 12, N-(3-(4-(6-fluoro-5H-imidazo[5,1-a]isoindol-5-yl)piperidin-1-yl)phenyl)acetamide trifluoroacetate], for which the concentration for half-maximal inhibition (IC50) at human IDO1 (setting [1]) was determined as 68.7 nM; on IDO in HeLa cells, 70.6 nM.

As for `Fc1cccc2c1C(C1CCN(c3ccccn3)CC1)n1cncc1-2` (stereo not shown) [Example 15, 6-fluoro-5-(1-(pyridin-2-yl)piperidin-4-yl)-5H-imidazo[5,1-a]isoindole trifluoroacetate], the IC50 at IDO in HeLa cells worked out at 199 nM. Same read-out and setting: the result for `Fc1cccc2c1C(C1CCN(c3ncccn3)CC1)n1cncc1-2` (stereo not shown) [Example 16, 6-fluoro-5-(1-(pyrimidin-2-yl)piperidin-4-yl)-5H-imidazo[5,1-a]isoindole trifluoroacetate] reads 260 nM; that for `O=C(Nc1ccccc1)N1CCC(C2c3c(F)cccc3-c3cncn32)CC1` (stereo not shown) [Example 21, 4-(6-fluoro-5H-imidazo[5,1-a]isoindol-5-yl)-N-phenylpiperidine-1-carboxamide trifluoroacetate], 477 nM. For `N#Cc1ccc(NC(=O)N2CCC(C3c4c(F)cccc4-c4cncn43)CC2)cc1` (stereo not shown) [Example 22, N-(4-cyanophenyl)-4-(6-fluoro-5H-imidazo[5,1-a]isoindol-5-yl)piperidine-1-carboxamide trifluoroacetate], the values for the IC50 at human IDO1 (setting [1]) and at IDO in HeLa cells were 56.9 nM and 130 nM, respectively. Take `CS(=O)(=O)N1CCC(n2cc(-c3ccc(N4CCC(C5c6c(F)cccc6-c6cncn65)CC4)cc3)cn2)CC1` (stereo not shown) [Example 31, 6-fluoro-5-(1-(4-(1-(1-(methylsulfonyl)piperidin-4-yl)-1H-pyrazol-4-yl)phenyl)piperidin-4-yl)-5H-imidazo[5,1-a]isoindole trifluoroacetate]: the IC50 on human IDO1 amounted to 14.2 nM.

On to `Fc1cccc2c1C(C1CCN(c3ccc(-c4cnn([C@@H]5CCOC5)c4)cc3)CC1)n1cncc1-2` (stereo partly drawn) [Example 32, 6-fluoro-5-(1-(4-(1-((R)-tetrahydrofuran-3-yl)-1H-pyrazol-4-yl)phenyl)piperidin-4-yl)-5H-imidazo[5,1-a]isoindole trifluoroacetate], for which the IC50 on human IDO1 amounted to 33 nM; at IDO in HeLa cells, 225 nM. For the compound `COc1cccc(NC(=O)C2CCC([C@@H]3c4c(F)cccc4-c4cncn43)CC2)c1` (stereo partly drawn) [Example 33, (1S,4S)-4-((R)-6-fluoro-5H-imidazo[5,1-a]isoindol-5-yl)-N-(3-methoxyphenyl)cyclohexanecarboxamide], at IDO in HeLa cells, the IC50 came out at 47.2 nM. Take `CS(=O)(=O)N1CCCC(Oc2cnc(N3CCC(C4c5c(F)cccc5-c5cncn54)CC3)nc2)C1` (stereo not shown) [Example 37, 6-fluoro-5-(1-(5-((1-(methylsulfonyl)piperidin-3-yl)oxy)pyrimidin-2-yl)piperidin-4-yl)-5H-imidazo[5,1-a]isoindole trifluoroacetate]: the IC50 on human IDO1 (setting [1]) was 17.8 nM; on IDO in HeLa cells, 114 nM.

With `Fc1cccc2c1C(C1CCN(c3ccc(OC4CCOC4)cc3)CC1)n1cncc1-2` (stereo not shown) [Example 38, 6-fluoro-5-(1-(4-((tetrahydrofuran-3-yl)oxy)phenyl)piperidin-4-yl)-5H-imidazo[5,1-a]isoindole], the IC50 worked out at 28.1 nM on human IDO1 (setting [1]) and 151 nM on IDO in HeLa cells. For the compound `COCCn1cc(-c2ccc(N3CCC(C4c5c(F)cccc5-c5cncn54)CC3)cc2)cn1` (stereo not shown) [Example 42, 6-fluoro-5-(1-(4-(1-(2-methoxyethyl)-1H-pyrazol-4-yl)phenyl)piperidin-4-yl)-5H-imidazo[5,1-a]isoindole trifluoroacetate], the IC50 on human IDO1 is 36.3 nM; at IDO in HeLa cells, 254 nM.

For `CC(=O)NCCn1cc(-c2ccc(N3CCC(C4c5c(F)cccc5-c5cncn54)CC3)cc2)cn1` (stereo not shown) [Example 43, N-(2-(4-(4-(4-(6-fluoro-5H-imidazo[5,1-a]isoindol-5-yl)piperidin-1-yl)phenyl)-1H-pyrazol-1-yl)ethyl)acetamide trifluoroacetate], the figures for the half-inhibitory concentration (IC50) at human IDO1 and at IDO in HeLa cells were 63.3 nM and 171 nM, respectively. The matching figures for `Fc1cccc2c1C(C1CCN(c3ccc(-c4cnn(C5CCOC5)c4)cc3)CC1)n1cncc1-2` [Example 44, 6-fluoro-5-(1-(4-(1-((R)-tetrahydrofuran-3-yl)-1H-pyrazol-4-yl)phenyl)piperidin-4-yl)-5H-imidazo[5,1-a]isoindole trifluoroacetate]: 16.6 nM and 175 nM. Regarding `Fc1cccc2c1C(C1CCN(c3ccc(Cl)cn3)CC1)n1cncc1-2` (stereo not shown) [Example 47, 5-(1-(5-chloropyridin-2-yl)piperidin-4-yl)-6-fluoro-5H-imidazo[5,1-a]isoindole], the IC50 on IDO in HeLa cells turned out to be 88.3 nM.

These data come from US10899764B2, “Imidazo isoindole derivative, preparation method therefor and medical use thereof” (Jiangsu Hengrui Medicine Co., Ltd., priority 2015, dated 2021).
